Reference: paper PMC11148045, “Structural basis for recognition of 26RFa by the pyroglutamylated RFamide peptide receptor” (Cell Discovery, 2024)
No end group written: not given here.

Legend:
Test in all cases: 26RFa-induced calcium mobilization, receptor mutants
[1] = target: T1, QRFPR mutants (Homo sapiens, UniProt Q96P65, D307A); type: cell-based; conditions: HEK293, QRFPR D307^7.27A; HEK293, Fluo-4; mean ± S.E.M., n ≥ 3
T1 construct: expressed in transfected cells; host or cells: HEK293, transient transfection by electroporation
T1 sequence (Q96P65 whole entry D307A): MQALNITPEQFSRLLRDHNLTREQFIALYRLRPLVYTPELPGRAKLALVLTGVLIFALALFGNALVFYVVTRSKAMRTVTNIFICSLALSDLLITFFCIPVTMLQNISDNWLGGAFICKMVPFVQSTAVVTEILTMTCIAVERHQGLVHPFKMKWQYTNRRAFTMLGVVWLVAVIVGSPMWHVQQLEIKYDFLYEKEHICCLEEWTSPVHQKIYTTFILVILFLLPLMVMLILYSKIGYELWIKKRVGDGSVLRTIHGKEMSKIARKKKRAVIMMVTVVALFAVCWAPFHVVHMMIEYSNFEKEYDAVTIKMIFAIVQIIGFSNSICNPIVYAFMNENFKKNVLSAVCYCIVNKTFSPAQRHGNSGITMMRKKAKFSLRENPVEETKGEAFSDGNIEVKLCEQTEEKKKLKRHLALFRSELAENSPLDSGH
Procedure: (§1) The gene encoding the WT QRFPR, PrPRR, KISS1R, NPFF1R, or NPFF2R was subcloned into the pcDNA3.0 vector with the addition of an N-terminal HA tag. All of the mutations used for functional studies were generated by QuickChange PCR and verified by DNA sequencing.
(§2) HEK293 cells were obtained from ATCC (Manassas, VA, USA) and cultured in DMEM supplemented with 10% (v/v) FBS, 100 mg/L penicillin, and 100 mg/L streptomycin in 5% CO2 at 37 °C. For transient transfection, ~2.5 × 10^6 cells were mixed with 2 µg plasmids in 200 µL transfection buffer, and electroporation was carried out with a Scientz-2C electroporation apparatus (Scientz Biotech, Ningbo, China). The experiments were carried out 24 h after transfection.
(§3) For QRFPR, PrRPR, and KISS1R, HEK293 cells transfected with WT receptor or its mutants were seeded at a density of 4 × 10^4 per well into 96-well culture plates and incubated for 24 h at 37 °C in 5% CO2. For NPFF1R and NPFF2R, plasmids were transfected into HEK293 cells stably expressing Gα16. On the next day, cells were incubated with 2 μmol/L Fluo-4 AM in HBSS supplemented with 5.6 mmol/L D-glucose and 250 μmol/L sulfinpyrazone at 37 °C for 45 min. After washing, cells were added with 50 μL HBSS and incubated at room temperature for 10 min, then 25 μL agonist buffer was dispensed into the well using a FlexStation III microplate reader (Molecular Devices), and intracellular calcium change was recorded at an excitation wavelength of 485 nm and an emission wavelength of 525 nm. EC50 and Emax values for each curve were calculated by Prism 8.0 software (GraphPad Software).

[2] = target: T2, QRFPR mutants (Homo sapiens, UniProt Q96P65, E297A); type: cell-based
T2 construct: expressed in transfected cells; host or cells: HEK293, transient transfection by electroporation
T2 sequence (Q96P65 whole entry E297A): as the sequence (Q96P65 whole entry D307A) above, with E297A, A307D counted along it
Procedure: as §1, §2, §3

[3] = target: T3, QRFPR mutants (Homo sapiens, UniProt Q96P65, F192A); type: cell-based; conditions: HEK293, QRFPR F192^ECL2A; HEK293, Fluo-4; mean ± S.E.M., n ≥ 3
T3 construct: expressed in transfected cells; host or cells: HEK293, transient transfection by electroporation
T3 sequence (Q96P65 whole entry F192A): as the sequence (Q96P65 whole entry D307A) above, with F192A, A307D counted along it
Procedure: as §1, §2, §3

[4] = target: T4, QRFPR mutants (Homo sapiens, UniProt Q96P65, H290A); type: cell-based; conditions: HEK293, QRFPR H290^6.52A; HEK293, Fluo-4; mean ± S.E.M., n ≥ 3
T4 construct: expressed in transfected cells; host or cells: HEK293, transient transfection by electroporation
T4 sequence (Q96P65 whole entry H290A): as the sequence (Q96P65 whole entry D307A) above, with H290A, A307D counted along it
Procedure: as §1, §2, §3

[5] = target: T5, QRFPR mutants (Homo sapiens, UniProt Q96P65, I199A); type: cell-based; conditions: HEK293, QRFPR I199^ECL2A; HEK293, Fluo-4; mean ± S.E.M., n ≥ 3
T5 construct: expressed in transfected cells; host or cells: HEK293, transient transfection by electroporation
T5 sequence (Q96P65 whole entry I199A): as the sequence (Q96P65 whole entry D307A) above, with I199A, A307D counted along it
Procedure: as §1, §2, §3

[6] = target: T6, QRFPR mutants (Homo sapiens, UniProt Q96P65, K189A); type: cell-based; conditions: HEK293, QRFPR K189^ECL2A; HEK293, Fluo-4; mean ± S.E.M., n ≥ 3
T6 construct: expressed in transfected cells; host or cells: HEK293, transient transfection by electroporation
T6 sequence (Q96P65 whole entry K189A): as the sequence (Q96P65 whole entry D307A) above, with K189A, A307D counted along it
Procedure: as §1, §2, §3

[7] = target: T7, QRFPR mutants (Homo sapiens, UniProt Q96P65, L202A); type: cell-based; conditions: HEK293, QRFPR L202^45.51A; HEK293, Fluo-4; mean ± S.E.M., n ≥ 3
T7 construct: expressed in transfected cells; host or cells: HEK293, transient transfection by electroporation
T7 sequence (Q96P65 whole entry L202A): as the sequence (Q96P65 whole entry D307A) above, with L202A, A307D counted along it
Procedure: as §1, §2, §3

[8] = target: T8, QRFPR mutants (Homo sapiens, UniProt Q96P65, M180A); type: cell-based; conditions: HEK293, QRFPR M180^4.60A; HEK293, Fluo-4; mean ± S.E.M., n ≥ 3
T8 construct: expressed in transfected cells; host or cells: HEK293, transient transfection by electroporation
T8 sequence (Q96P65 whole entry M180A): as the sequence (Q96P65 whole entry D307A) above, with M180A, A307D counted along it
Procedure: as §1, §2, §3

[9] = target: T9, QRFPR mutants (Homo sapiens, UniProt Q96P65, N110A); type: cell-based; conditions: HEK293, QRFPR N110^23.49A; HEK293, Fluo-4; mean ± S.E.M., n ≥ 3
T9 construct: expressed in transfected cells; host or cells: HEK293, transient transfection by electroporation
T9 sequence (Q96P65 whole entry N110A): as the sequence (Q96P65 whole entry D307A) above, with N110A, A307D counted along it
Procedure: as §1, §2, §3

[10] = target: T10, QRFPR mutants (Homo sapiens, UniProt Q96P65, Q211A); type: cell-based; conditions: HEK293, QRFPR Q211^5.35A; HEK293, Fluo-4; mean ± S.E.M., n ≥ 3
T10 construct: expressed in transfected cells; host or cells: HEK293, transient transfection by electroporation
T10 sequence (Q96P65 whole entry Q211A): as the sequence (Q96P65 whole entry D307A) above, with Q211A, A307D counted along it
Procedure: as §1, §2, §3

[11] = target: T11, QRFPR mutants (Homo sapiens, UniProt Q96P65, Q318A); type: cell-based; conditions: HEK293, QRFPR Q318^7.39A; HEK293, Fluo-4; mean ± S.E.M., n ≥ 3
T11 construct: expressed in transfected cells; host or cells: HEK293, transient transfection by electroporation
T11 sequence (Q96P65 whole entry Q318A): as the sequence (Q96P65 whole entry D307A) above, with A307D, Q318A counted along it
Procedure: as §1, §2, §3

[12] = target: T12, QRFPR mutants (Homo sapiens, UniProt Q96P65, T215A); type: cell-based; conditions: HEK293, QRFPR T215^5.39A; HEK293, Fluo-4; mean ± S.E.M., n ≥ 3
T12 construct: expressed in transfected cells; host or cells: HEK293, transient transfection by electroporation
T12 sequence (Q96P65 whole entry T215A): as the sequence (Q96P65 whole entry D307A) above, with T215A, A307D counted along it
Procedure: as §1, §2, §3

[13] = target: T13, QRFPR mutants (Homo sapiens, UniProt Q96P65, V121A); type: cell-based; conditions: HEK293, QRFPR V121^3.28A; HEK293, Fluo-4; mean ± S.E.M., n ≥ 3
T13 construct: expressed in transfected cells; host or cells: HEK293, transient transfection by electroporation
T13 sequence (Q96P65 whole entry V121A): as the sequence (Q96P65 whole entry D307A) above, with V121A, A307D counted along it
Procedure: as §1, §2, §3

[14] = target: T14, QRFPR mutants (Homo sapiens, UniProt Q96P65, W111A); type: cell-based; conditions: HEK293, QRFPR W111^23.50A; HEK293, Fluo-4; mean ± S.E.M., n ≥ 3
T14 construct: expressed in transfected cells; host or cells: HEK293, transient transfection by electroporation
T14 sequence (Q96P65 whole entry W111A): as the sequence (Q96P65 whole entry D307A) above, with W111A, A307D counted along it
Procedure: as §1, §2, §3

[15] = target: T15, QRFPR mutants (Homo sapiens, UniProt Q96P65, W205A); type: cell-based; conditions: HEK293, QRFPR W205^ECL2A; HEK293, Fluo-4; mean ± S.E.M., n ≥ 3
T15 construct: expressed in transfected cells; host or cells: HEK293, transient transfection by electroporation
T15 sequence (Q96P65 whole entry W205A): as the sequence (Q96P65 whole entry D307A) above, with W205A, A307D counted along it
Procedure: as §1, §2, §3

[16] = target: T16, QRFPR mutants (Homo sapiens, UniProt Q96P65, W286A); type: cell-based; conditions: HEK293, QRFPR W286^6.48A; HEK293, Fluo-4; mean ± S.E.M., n ≥ 3
T16 construct: expressed in transfected cells; host or cells: HEK293, transient transfection by electroporation
T16 sequence (Q96P65 whole entry W286A): as the sequence (Q96P65 whole entry D307A) above, with W286A, A307D counted along it
Procedure: as §1, §2, §3

[17] = target: T17, QRFPR mutants (Homo sapiens, UniProt Q96P65, Y214A); type: cell-based; conditions: HEK293, QRFPR Y214^5.38A; HEK293, Fluo-4; mean ± S.E.M., n ≥ 3
T17 construct: expressed in transfected cells; host or cells: HEK293, transient transfection by electroporation
T17 sequence (Q96P65 whole entry Y214A): as the sequence (Q96P65 whole entry D307A) above, with Y214A, A307D counted along it
Procedure: as §1, §2, §3

[18] = test system: QRFPR mutants; type: cell-based, human
Procedure: as §1, §2, §3

ASGPLGTLAEELSSYSRRKGGFSFRF-NH2 [26RFa]
Emax [1]: 106 ± 0.64%
Emax ([2]; HEK293, QRFPR E297^6.59A, HEK293, Fluo-4, mean ± S.E.M., n ≥ 3): 107 ± 0.8%
effect of mutation on 26RFa activity ([2]; QRFPR 6.59 to alanine (printed D^6.59)): almost did not affect 26RFa activity
Emax [3]: 87.4 ± 0.93%
Emax [4]: 60.4 ± 0.39%
Emax [5]: 89.7 ± 2.3%
Emax [6]: 94.9 ± 1.6%
Emax [7]: 101 ± 2.3%
Emax [8]: 93.3 ± 1%
Emax [9]: 98.6 ± 2.3%
Emax [10]: 94.9 ± 1.6%
Emax [11]: 1.69 ± 0.66%
Emax [12]: 85.8 ± 3.4%
Emax [13]: 106 ± 5.4%
Emax [14]: 73.4 ± 1.7%
Emax [15]: 2.58 ± 1.2%
Emax [16]: 1.8 ± 0.38%
Emax [17]: 1.42 ± 0.7%
role of Q^3.32 and Q/H^7.39 in activity ([18]; 26RFa, QRFPR): critical for the activity
effect of mutation on QRFPR activation ([18]; alanine substitution of W111^23.50 and two conserved cysteines (C118^3.25, C201^45.50)): notably hampered QRFPR activation
role of residues in 26RFa-induced receptor activation ([18]; residues around Arg25-Phe26-amide except I218^5.42 (E203, Q318, Y214, V129, F289, Q125, C98, F322)): essential for 26RFa-induced receptor activation
